# Assay results: PubChem BioAssay (NCI)
#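 Interpolation was linear, between the two tested concentrations surrounding the appropriate level; five concentrations were tested over 48 hours in 96-well plates. Abbreviation: GI50, concentration required for 50% inhibition of growth. Definition used: TGI = concentration required for complete inhibition of growth.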
# Key:
# Assay in all cases: inhibition of tumour cell growth, NCI panel, 48 h
# NCI-H522 lung = tested on: NCI-H522 lung
# SK-MEL-5 melanoma = tested on: SK-MEL-5 melanoma
# SF-295 CNS = tested on: SF-295 CNS
# OVCAR-5 ovarian = tested on: OVCAR-5 ovarian
# NCI/ADR-RES ovarian = tested on: NCI/ADR-RES ovarian
# UO-31 renal = tested on: UO-31 renal
# HCT-116 colon = tested on: HCT-116 colon
# UACC-62 melanoma = tested on: UACC-62 melanoma
# OVCAR-3 ovarian = tested on: OVCAR-3 ovarian
# SK-MEL-2 melanoma = tested on: SK-MEL-2 melanoma
# ACHN renal = tested on: ACHN renal
# UACC-257 melanoma = tested on: UACC-257 melanoma
# MALME-3M melanoma = tested on: MALME-3M melanoma
# CAKI-1 renal = tested on: CAKI-1 renal
# OVCAR-8 ovarian = tested on: OVCAR-8 ovarian
# DU-145 prostate = tested on: DU-145 prostate
# SNB-19 CNS = tested on: SNB-19 CNS
# HOP-92 NSCLC = tested on: HOP-92 NSCLC
# SN12C renal = tested on: SN12C renal
# SW-620 colon = tested on: SW-620 colon
# SF-268 CNS = tested on: SF-268 CNS
# NCI-H460 lung = tested on: NCI-H460 lung
# T-47D breast = tested on: T-47D breast
# KM12 colon = tested on: KM12 colon
# NCI-H23 lung = tested on: NCI-H23 lung
# A498 renal = tested on: A498 renal
# OVCAR-4 ovarian = tested on: OVCAR-4 ovarian
# HCC-2998 colon = tested on: HCC-2998 colon
# SF-539 CNS = tested on: SF-539 CNS
# HL-60(TB) leukemia = tested on: HL-60(TB) leukemia
# HT29 colon = tested on: HT29 colon
# MDA-MB-231 breast = tested on: MDA-MB-231 breast
# HCT-15 colon = tested on: HCT-15 colon
# SNB-75 CNS = tested on: SNB-75 CNS
# HS 578T breast = tested on: HS 578T breast
# A549 NSCLC = tested on: A549 NSCLC
# HOP-62 NSCLC = tested on: HOP-62 NSCLC
# PC-3 prostate = tested on: PC-3 prostate
# COLO 205 colon = tested on: COLO 205 colon
# SK-MEL-28 melanoma = tested on: SK-MEL-28 melanoma
# TK-10 renal = tested on: TK-10 renal
# RPMI-8226 leukemia = tested on: RPMI-8226 leukemia
# IGROV1 ovarian = tested on: IGROV1 ovarian
# RXF 393 renal = tested on: RXF 393 renal
# SK-OV-3 ovarian = tested on: SK-OV-3 ovarian
# NCI-H226 lung = tested on: NCI-H226 lung
# BT-549 breast = tested on: BT-549 breast
# MOLT-4 leukemia = tested on: MOLT-4 leukemia
# K-562 leukemia = tested on: K-562 leukemia
# SR leukemia = tested on: SR leukemia
# 786-0 renal = tested on: 786-0 renal
# CCRF-CEM leukemia = tested on: CCRF-CEM leukemia
# LOX IMVI melanoma = tested on: LOX IMVI melanoma
# EKVX NSCLC = tested on: EKVX NSCLC
compound,measurement,setting,value
O=C(Nc1ccc(-c2nc(-c3cccc(O)c3)c(-c3ccnc(Br)c3)[nH]2)cc1)c1ccccc1,GI50,NCI-H522 lung,2.01 µM
same,TGI,NCI-H522 lung,5.35 µM
same,GI50,SK-MEL-5 melanoma,1.79 µM
same,TGI,SK-MEL-5 melanoma,3.23 µM
same,GI50,SF-295 CNS,0.34 µM
same,TGI,SF-295 CNS,1.16 µM
same,GI50,OVCAR-5 ovarian,2.92 µM
same,TGI,OVCAR-5 ovarian,19.1 µM
same,GI50,NCI/ADR-RES ovarian,3 µM
same,TGI,NCI/ADR-RES ovarian,12.4 µM
same,GI50,UO-31 renal,2.56 µM
same,TGI,UO-31 renal,6.56 µM
same,GI50,HCT-116 colon,2.26 µM
same,TGI,HCT-116 colon,7.6 µM
same,GI50,UACC-62 melanoma,1.73 µM
same,TGI,UACC-62 melanoma,4.09 µM
same,GI50,OVCAR-3 ovarian,2.09 µM
same,TGI,OVCAR-3 ovarian,5.67 µM
same,GI50,SK-MEL-2 melanoma,2.02 µM
same,TGI,SK-MEL-2 melanoma,5.46 µM
same,GI50,ACHN renal,2.43 µM
same,TGI,ACHN renal,7.42 µM
same,GI50,UACC-257 melanoma,2.21 µM
same,TGI,UACC-257 melanoma,5.84 µM
same,GI50,MALME-3M melanoma,1.83 µM
same,TGI,MALME-3M melanoma,4.71 µM
same,GI50,CAKI-1 renal,1.98 µM
same,TGI,CAKI-1 renal,5.8 µM
same,GI50,OVCAR-8 ovarian,2.6 µM
same,TGI,OVCAR-8 ovarian,> 100 µM
same,GI50,DU-145 prostate,2.76 µM
same,TGI,DU-145 prostate,8.74 µM
same,GI50,SNB-19 CNS,1.83 µM
same,TGI,SNB-19 CNS,7.14 µM
same,GI50,HOP-92 NSCLC,1.84 µM
same,TGI,HOP-92 NSCLC,4.73 µM
same,GI50,SN12C renal,2.68 µM
same,TGI,SN12C renal,8.95 µM
same,GI50,SW-620 colon,2.37 µM
same,TGI,SW-620 colon,7.17 µM
same,GI50,SF-268 CNS,2.21 µM
same,TGI,SF-268 CNS,6.95 µM
same,GI50,NCI-H460 lung,2.45 µM
same,TGI,NCI-H460 lung,6.52 µM
same,GI50,T-47D breast,1.73 µM
same,TGI,T-47D breast,4.73 µM
same,GI50,KM12 colon,2.44 µM
same,TGI,KM12 colon,7.13 µM
same,GI50,NCI-H23 lung,2.04 µM
same,TGI,NCI-H23 lung,4.78 µM
same,GI50,A498 renal,1.66 µM
same,TGI,A498 renal,4.53 µM
same,GI50,OVCAR-4 ovarian,2.27 µM
same,TGI,OVCAR-4 ovarian,6.09 µM
same,GI50,HCC-2998 colon,2.27 µM
same,TGI,HCC-2998 colon,6.37 µM
same,GI50,SF-539 CNS,1.51 µM
same,TGI,SF-539 CNS,4.78 µM
same,GI50,HL-60(TB) leukemia,1.37 µM
same,TGI,HL-60(TB) leukemia,6.82 µM
same,GI50,HT29 colon,2.85 µM
same,TGI,HT29 colon,> 100 µM
same,GI50,MDA-MB-231 breast,2.59 µM
same,TGI,MDA-MB-231 breast,17.1 µM
same,GI50,HCT-15 colon,2.01 µM
same,TGI,HCT-15 colon,7.29 µM
same,GI50,SNB-75 CNS,0.286 µM
same,TGI,SNB-75 CNS,3.37 µM
same,GI50,HS 578T breast,0.308 µM
same,TGI,HS 578T breast,0.946 µM
same,GI50,A549 NSCLC,2.95 µM
same,TGI,A549 NSCLC,> 100 µM
same,GI50,HOP-62 NSCLC,2.54 µM
same,TGI,HOP-62 NSCLC,9.05 µM
same,GI50,PC-3 prostate,1.9 µM
same,TGI,PC-3 prostate,5.84 µM
same,GI50,COLO 205 colon,1.99 µM
same,TGI,COLO 205 colon,4.84 µM
same,GI50,SK-MEL-28 melanoma,1.76 µM
same,TGI,SK-MEL-28 melanoma,4.82 µM
same,GI50,TK-10 renal,2.92 µM
same,TGI,TK-10 renal,8.03 µM
same,GI50,RPMI-8226 leukemia,0.595 µM
same,TGI,RPMI-8226 leukemia,2.89 µM
same,GI50,IGROV1 ovarian,2.62 µM
same,TGI,IGROV1 ovarian,6.53 µM
same,GI50,RXF 393 renal,0.294 µM
same,TGI,RXF 393 renal,0.869 µM
same,GI50,SK-OV-3 ovarian,2.68 µM
same,TGI,SK-OV-3 ovarian,7.09 µM
same,GI50,NCI-H226 lung,2.33 µM
same,TGI,NCI-H226 lung,6.53 µM
same,GI50,BT-549 breast,1.8 µM
same,TGI,BT-549 breast,5.79 µM
same,GI50,MOLT-4 leukemia,2 µM
same,TGI,MOLT-4 leukemia,7.48 µM
same,GI50,K-562 leukemia,2.12 µM
same,TGI,K-562 leukemia,> 100 µM
same,GI50,SR leukemia,1.26 µM
same,TGI,SR leukemia,> 100 µM
same,GI50,786-0 renal,1.08 µM
same,TGI,786-0 renal,4.03 µM
same,GI50,CCRF-CEM leukemia,1.32 µM
same,TGI,CCRF-CEM leukemia,> 100 µM
same,GI50,LOX IMVI melanoma,1.52 µM
same,TGI,LOX IMVI melanoma,3.95 µM
same,GI50,EKVX NSCLC,2.14 µM
same,TGI,EKVX NSCLC,6.19 µM
